ChEMBL document CHEMBL1250448, “Inhibitor hijacking of Akt activation” (Nat Chem Biol, 2009)
The source made the active and inactive calls. The calls are words filed in the database; no cut-off is given here.

Experiments:
PC-3 = experiment: Induction of myristoylated AKT2 M225G and kinase dead D289A mutant Thr308 hyperphosphorylation expressed in PC3 cells at 2.5 uM after 30 mins by immunoblotting; format: cell-based
[1] = tested on: RAC-alpha serine/threonine-protein kinase (Homo sapiens), P31749 [M227G]; experiment: Induction of myristoylated AKT1 M227G Ser473 hyperphosphorylation expressed in MCF7 cells at 2.5 uM after 30 mins by immunoblotting; format: cell-based
Chain of RAC-alpha serine/threonine-protein kinase (Homo sapiens), P31749 [M227G] (P31749 whole entry M227G): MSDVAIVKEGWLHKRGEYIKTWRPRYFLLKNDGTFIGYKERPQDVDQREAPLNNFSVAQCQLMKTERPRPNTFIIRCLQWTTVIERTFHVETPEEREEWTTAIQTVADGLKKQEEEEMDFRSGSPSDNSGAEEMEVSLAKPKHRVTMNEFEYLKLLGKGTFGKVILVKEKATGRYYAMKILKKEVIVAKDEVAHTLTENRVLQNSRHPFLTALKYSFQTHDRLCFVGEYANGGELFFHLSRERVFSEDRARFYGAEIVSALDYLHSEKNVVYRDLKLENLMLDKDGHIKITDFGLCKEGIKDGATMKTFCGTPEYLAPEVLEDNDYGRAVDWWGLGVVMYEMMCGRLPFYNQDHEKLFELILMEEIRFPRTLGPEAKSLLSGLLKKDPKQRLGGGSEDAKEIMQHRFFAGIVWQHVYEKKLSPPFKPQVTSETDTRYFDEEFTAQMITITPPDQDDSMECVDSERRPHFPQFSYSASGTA

[2] = molecular target: RAC-alpha serine/threonine-protein kinase (Homo sapiens, UniProt P31749); experiment: Induction of flag-tagged wild type AKT1 Thr308 hyperphosphorylation expressed in HEK293 cells coexpressing HA-tagged AKT1 M227G after 30 mins by immunoblotting
Chain of RAC-alpha serine/threonine-protein kinase (P31749 whole entry): as the sequence (P31749 whole entry M227G) above, with G227M counted along it

[3] = tested on: RAC-alpha serine/threonine-protein kinase (Homo sapiens), P31749 [M227G]; experiment: Induction of myristoylated AKT1 M227G Thr308 hyperphosphorylation expressed in MCF7 cells at 2.5 uM after 30 mins by immunoblotting; format: cell-based
HEK-293T [4] = experiment: Induction myristoylated AKT2 M225G mutant Thr308 hyperphosphorylation expressed in HEK293T cells at 2.5 uM after 30 mins by immunoblotting; format: cell-based
[5] = tested on: RAC-alpha serine/threonine-protein kinase (Homo sapiens), P31749 [M227G]; experiment: Induction of AKT1 M227G Thr308 hyperphosphorylation expressed in HEK293 cells at 2.5 uM after 30 mins pretreated with allosteric AKT inhibitor Akti-1,2 10 mins before compound addition by immunoblotting
[6] = tested on: RAC-alpha serine/threonine-protein kinase (Homo sapiens), P31749 [M227G,D292A]; experiment: Induction of myristoylated AKT1 M227G and kinase dead D292A mutant Ser473 hyperphosphorylation expressed in PC3 cells at 2.5 uM after 30 mins by immunoblotting; format: cell-based; details: PC-3
Chain of RAC-alpha serine/threonine-protein kinase (Homo sapiens), P31749 [M227G,D292A] (P31749 whole entry M227G/D292A): as the sequence (P31749 whole entry M227G) above, with D292A counted along it

HEK-293T [7] = experiment: Induction of myristoylated AKT2 M225G and kinase dead D289A mutant Thr308 hyperphosphorylation expressed in HEK293T cells at 2.5 uM after 30 mins by immunoblotting; format: cell-based
[8] = tested on: RAC-alpha serine/threonine-protein kinase (Homo sapiens), P31749 [M227G,D292A]; experiment: Induction of myristoylated AKT1 M227G and kinase dead D292A mutant Thr308 hyperphosphorylation expressed in PC3 cells at 2.5 uM after 30 mins by immunoblotting; format: cell-based; details: PC-3
HEK-293T [9] = experiment: Induction of myristoylated AKT3 M229G mutant Thr308 hyperphosphorylation expressed in HEK293T cells at 2.5 uM after 30 mins by immunoblotting; format: cell-based
[10] = tested on: RAC-alpha serine/threonine-protein kinase (Homo sapiens), P31749 [M227G]; experiment: Induction of membrane localized myristoylated AKT1 M227G mutant Thr308 hyperphosphorylation expressed in HEK293T cells at 2.5 uM after 30 mins by immunoblotting; format: cell-based; details: HEK-293T
[11] = tested on: RAC-alpha serine/threonine-protein kinase (Homo sapiens), P31749 [M227G]; experiment: Induction of myristoylated AKT1 M227G Thr308 hyperphosphorylation expressed in PC3 cells at 2.5 uM after 30 mins by immunoblotting; format: cell-based; details: PC-3
[12] = tested on: RAC-alpha serine/threonine-protein kinase (Homo sapiens), P31749 [M227G]; experiment: Induction of mCherry tagged AKT1 M227G Thr308 hyperphosphorylation expressed in HEK293 cells at 2.5 uM after 30 mins by immunoblotting; format: cell-based
[13] = tested on: RAC-alpha serine/threonine-protein kinase (Homo sapiens), P31749 [M227G]; experiment: Induction of myristoylated AKT1 M227G mutant Ser473 hyperphosphorylation expressed in HEK293T cells at 2.5 uM after 30 mins by immunoblotting; format: cell-based; details: HEK-293T
[14] = tested on: RAC-alpha serine/threonine-protein kinase (Homo sapiens), P31749 [M227G,D292A]; experiment: Induction of myristoylated AKT1 M227G and kinase dead D292A mutant Ser473 hyperphosphorylation expressed in MCF7 cells at 2.5 uM after 30 mins by immunoblotting; format: cell-based
HEK-293T [15] = experiment: Induction of nonmyristoylated AKT2 M225G and kinase dead D289A mutant Thr308 hyperphosphorylation expressed in HEK293T cells at 2.5 uM after 30 mins by immunoblotting; format: cell-based
[16] = tested on: RAC-alpha serine/threonine-protein kinase (Homo sapiens), P31749 [M227G]; experiment: Induction of myristoylated AKT1 M227G mutant Thr308 hyperphosphorylation expressed in HEK293T cells at 2.5 uM after 30 mins pretreated with PDK1 inhibitor BX-795 for 10 mins before compound addition by immunoblotting; format: cell-based; details: HEK-293T

`CCCc1cc(-c2cncc(OC[C@@H](N)Cc3c[nH]c4ccccc34)c2)cc2c(C)n[nH]c12` was tested, and the Activity (PC-3) was “Active”, the Activity [1] was “Active” and the Activity [2] was “inactive”. The Activity [3] was “Active”, the Activity (HEK-293T [4]) was “Active” and the Activity [5] was “inactive”. For the same compound, the Activity [6] was “Active”, the Activity (HEK-293T [7]) was “Active” and the Activity [8] was “Active”. The Activity (HEK-293T [9]) was “Active”, the Activity [10] was “Active” and the Activity [11] was “Active”. For the same compound, the Activity [12] was “Active”, the Activity [13] was “Active” and the Activity [14] was “Active”. For the same compound, the Activity (HEK-293T [15]) was “Active” and the Activity [16] was “inactive”.
